Assay results as given in PMC7500650, “Transformation of low molecular compounds and soil humic acid by two domain laccase of Streptomyces puniceus in the presence of ferulic and caffeic acids” (PLoS ONE, 2020).

Test system: T1, SpSL (two-domain laccase of Streptomyces puniceus)
T1 construct: TAT signal peptide (1-34) removed: forward primer GGATCC-GAGAAGCCGCCCCG starts the insert at EKPP; pQE-30 (His-tag, cleavage not mentioned), E. coli M15 (pREP4), HisTrap; precursor 344 residues; 110 kDa native homotrimer
Assay: oxidation kinetics, nonlinear regression
Format: biochemical
Settings: apparent constant, co-substrate O2
From the text: oxidation kinetics, nonlinear regression on SpSL (two-domain laccase of Streptomyces puniceus)

[1] = pH of kinetics not printed (alkaline optimum)

Row | Compound | Km (pH of kinetics not printed (routine ABTS assay: 20 mM Na-acetate pH 5.0, 420 nm)) [µM] | Km [1] [µM]
1 | CCn1c(=NN=c2sc3cc(S(=O)(=O)O)ccc3n2CC)sc2cc(S(=O)(=O)O)ccc21 [ABTS] | 370 ± 21 | 
2 | COc1ccccc1O [2-Methoxyphenol] |  | 5700 ± 250
3 | COc1cccc(OC)c1O [2,6-Dimethoxyphenol] |  | 1150 ± 100
